Converted amounts (≈) assume the structure as drawn.
Assays:
[1] = AUClast in Sprague-Dawley rat at 3 mg/kg, IG measured upto 24 hrs by LC-MS/MS analysis; type: ADME, organism-based; design: time < 24 hrs, dose 3 mg/kg, route ig; details: in vivo, po
[2] = Tmax in Sprague-Dawley rat at 3 mg/kg, IG measured upto 24 hrs by LC-MS/MS analysis; type: ADME, organism-based; details: in vivo, po
[3] = Cmax in Sprague-Dawley rat at 3 mg/kg, IG measured upto 24 hrs by LC-MS/MS analysis; type: ADME, organism-based; design: dose 3 mg/kg, time < 24 hrs, route ig; details: in vivo, po
[4] = Apparent volume of distribution during terminal state in Sprague-Dawley rat at 3 mg/kg, IG measured upto 24 hrs by LC-MS/MS analysis; type: ADME, organism-based; details: in vivo, po, read-out: Vz/F
[5] = Half life in Sprague-Dawley rat at 3 mg/kg, IG measured upto 24 hrs by LC-MS/MS analysis; type: ADME, organism-based; details: in vivo, po
[6] = MRTlast in Sprague-Dawley rat at 3 mg/kg, IG measured upto 24 hrs by LC-MS/MS analysis; type: ADME, organism-based; details: in vivo, po
[7] = MRTlast in Sprague-Dawley rat at 4 mg/kg, IG administered as single dose measured upto 24 hrs by LC-MS/MS analysis; type: ADME, organism-based; details: in vivo, po
[8] = Half life in Sprague-Dawley rat at 2 mg/kg, IG administered as single dose measured upto 24 hrs by LC-MS/MS analysis; type: ADME, organism-based; details: in vivo, po
[9] = Cmax in Sprague-Dawley rat at 4 mg/kg, IG administered as single dose measured upto 24 hrs by LC-MS/MS analysis; type: ADME, organism-based; design: dose 4 mg/kg, time < 24 hrs, route ig; details: in vivo, po
[10] = MRTlast in Sprague-Dawley rat at 2 mg/kg, IG administered as single dose measured upto 24 hrs by LC-MS/MS analysis; type: ADME, organism-based; details: in vivo, po
[11] = AUClast in Sprague-Dawley rat at 2 mg/kg, IG administered as single dose measured upto 24 hrs by LC-MS/MS analysis; type: ADME, organism-based; design: dose 2 mg/kg, time < 24 hrs, route ig; details: in vivo, po
[12] = Half life in Sprague-Dawley rat at 4 mg/kg, IG administered as single dose measured upto 24 hrs by LC-MS/MS analysis; type: ADME, organism-based; details: in vivo, po
[13] = AUClast in Sprague-Dawley rat at 4 mg/kg, IG administered as single dose measured upto 24 hrs by LC-MS/MS analysis; type: ADME, organism-based; design: dose 4 mg/kg, time < 24 hrs, route ig; details: in vivo, po
[14] = Tmax in Sprague-Dawley rat at 4 mg/kg, IG administered as single dose measured upto 24 hrs by LC-MS/MS analysis; type: ADME, organism-based; details: in vivo, po
[15] = Cmax in Sprague-Dawley rat at 2 mg/kg, IG administered as single dose measured upto 24 hrs by LC-MS/MS analysis; type: ADME, organism-based; design: dose 2 mg/kg, time < 24 hrs, route ig; details: in vivo, po
[16] = Tmax in Sprague-Dawley rat at 2 mg/kg, IG administered as single dose measured upto 24 hrs by LC-MS/MS analysis; type: ADME, organism-based; details: in vivo, po
[17] = Plasma protein binding in rat at 10 uM; type: ADME, cell-free; details: read-out: PPB (converted)
[18] = Drug metabolism in human assessed as AUC(0 to 24 hrs) for AC- 527 metabolite at 80 mg/kg/day by UHPLC/FT-ICR-MS analysis; type: ADME, organism-based; design: time < 24 hr, dose 80 mg/kg/day; details: in vivo
[19] = Metabolic stability in Sprague-Dawley rat liver microsomes assessed as compound remaining at 100 uM […] followed by NADPH addition by LC/MS analysis; type: ADME, Microsome; details: read-out: Stability
[20] = Drug metabolism in mouse assessed as AUC(0 to 24 hrs) for AC-279 metabolite at 100 mg/kg by UHPLC/FT-ICR-MS analysis; type: ADME, organism-based; design: time < 24 hr, dose 100 mg/kg; details: in vivo
[21] = Drug distribution in Sprague-Dawley rat brain at 6 micromol/kg administered via gavage measured after 2 hrs by LC-MS/MS analysis; type: ADME, tissue-based; details: in vivo, po, dose 6 µmol/kg
[22] = biological target: T1, Cytochrome P450 1A2 (Homo sapiens, UniProt P05177); test: Inhibition of CYP1A2 (unknown origin); type: ADME
T1 sequence (P05177 whole entry): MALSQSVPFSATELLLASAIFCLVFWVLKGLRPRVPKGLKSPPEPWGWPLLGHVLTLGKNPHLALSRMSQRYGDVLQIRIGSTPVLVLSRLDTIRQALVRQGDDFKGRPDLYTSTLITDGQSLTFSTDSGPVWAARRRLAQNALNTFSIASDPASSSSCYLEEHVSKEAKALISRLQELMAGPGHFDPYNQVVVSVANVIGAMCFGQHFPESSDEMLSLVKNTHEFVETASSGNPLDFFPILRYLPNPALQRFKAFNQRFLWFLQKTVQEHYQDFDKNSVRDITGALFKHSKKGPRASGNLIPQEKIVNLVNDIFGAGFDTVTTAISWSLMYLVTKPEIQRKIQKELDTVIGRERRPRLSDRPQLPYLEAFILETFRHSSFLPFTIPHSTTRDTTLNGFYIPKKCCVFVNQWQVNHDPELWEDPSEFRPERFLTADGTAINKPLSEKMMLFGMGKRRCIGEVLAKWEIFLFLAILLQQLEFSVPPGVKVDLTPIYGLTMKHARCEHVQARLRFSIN

[23] = Metabolic stability in human liver microsomes assessed as intrinsic clearance at 100 uM preincubated for 10 mins followed by NADPH addition by LC/MS analysis; type: ADME, Microsome; details: read-out: CLH
[24] = Drug distribution in Sprague-Dawley rat brain at 6 micromol/kg administered via gavage measured after 0.5 hr by LC-MS/MS analysis; type: ADME, tissue-based; details: in vivo, po, dose 6 µmol/kg
[25] = Metabolic stability in Sprague-Dawley rat liver microsomes assessed as intrinsic clearance at 100 uM preincubated for 10 mins followed by NADPH addition by LC/MS analysis; type: ADME, Microsome; details: read-out: CLH
[26] = Lipophilicity, logD of the compound at pH 7.4; type: physicochemical; details: buffer
[27] = AUC(0 to 24 hrs) in human at 80 mg/kg/day by UHPLC/FT-ICR-MS analysis; type: ADME, organism-based; design: time < 24 hr, dose 80 mg/kg/day; details: in vivo
[28] = Drug metabolism in monkey assessed as AUC(0 to 24 hrs) for AC- 423 metabolite at 100 mg/kg by UHPLC/FT-ICR-MS analysis; type: ADME, organism-based, Macaca mulatta; design: time < 24 hr, dose 100 mg/kg; details: rhesus monkey, in vivo
[29] = Aqueous solubility of compound at pH 7.4; type: physicochemical
[30] = Dissociation constant, pKa of the compound; type: physicochemical
[31] = Metabolic stability in human liver microsomes assessed as half life at 100 uM preincubated for 10 mins followed by NADPH addition by LC/MS analysis; type: ADME, Microsome
[32] = Drug metabolism in human assessed as AUC(0 to 24 hrs) for AC- 423 metabolite at 80 mg/kg/day by UHPLC/FT-ICR-MS analysis; type: ADME, organism-based; design: time < 24 hr, dose 80 mg/kg/day; details: in vivo
[33] = biological target: Cytochrome P450 2D6 (Homo sapiens, UniProt P10635); test: Inhibition of CYP2D6 (unknown origin); type: ADME
[34] = Drug metabolism in rat assessed as AUC(0 to 24 hrs) for AC- 423 metabolite at 100 mg/kg by UHPLC/FT-ICR-MS analysis; type: ADME, organism-based; design: time < 24 hr, dose 100 mg/kg; details: in vivo
[35] = Plasma protein binding in human at 10 uM; type: ADME, cell-free; details: read-out: PPB (converted)
[36] = biological target: Cytochrome P450 2C19 (Homo sapiens, UniProt P33261); test: Inhibition of CYP2C19 (unknown origin); type: ADME
[37] = AUC(0 to 24 hrs) in rat at 100 mg/kg by UHPLC/FT-ICR-MS analysis; type: ADME, organism-based; design: time < 24 hr, dose 100 mg/kg; details: in vivo
[38] = Drug metabolism in rat assessed as AUC(0 to 24 hrs) for AC-279 metabolite at 100 mg/kg by UHPLC/FT-ICR-MS analysis; type: ADME, organism-based; design: time < 24 hr, dose 100 mg/kg; details: in vivo
[39] = Drug metabolism in monkey assessed as AUC(0 to 24 hrs) for AC-279 metabolite at 100 mg/kg by UHPLC/FT-ICR-MS analysis; type: ADME, organism-based, Macaca mulatta; design: time < 24 hr, dose 100 mg/kg; details: rhesus monkey, in vivo
[40] = Plasma protein binding in monkey at 10 uM; type: ADME, cell-free, Macaca mulatta; details: rhesus monkey, read-out: PPB (converted)
[41] = Metabolic stability in dog liver microsomes assessed as compound remaining at 100 uM […] followed by NADPH addition by LC/MS analysis; type: ADME, Canis lupus familiaris, Microsome; details: read-out: Stability
[42] = AUC(0 to 24 hrs) in monkey at 100 mg/kg by UHPLC/FT-ICR-MS analysis; type: ADME, organism-based, Macaca mulatta; design: time < 24 hr, dose 100 mg/kg; details: rhesus monkey, in vivo
[43] = Metabolic stability in Sprague-Dawley rat liver microsomes assessed as half life at 100 uM preincubated for 10 mins followed by NADPH addition by LC/MS analysis; type: ADME, Microsome
[44] = biological target: Cytochrome P450 2C9 (Homo sapiens, UniProt P11712); test: Inhibition of CYP2C9 (unknown origin); type: ADME
[45] = Drug metabolism in monkey assessed as AUC(0 to 24 hrs) for AC- 527 metabolite at 100 mg/kg by UHPLC/FT-ICR-MS analysis; type: ADME, organism-based, Macaca mulatta; design: time < 24 hr, dose 100 mg/kg; details: rhesus monkey, in vivo
[46] = Drug metabolism in mouse assessed as AUC(0 to 24 hrs) for AC- 527 metabolite at 100 mg/kg by UHPLC/FT-ICR-MS analysis; type: ADME, organism-based; design: time < 24 hr, dose 100 mg/kg; details: in vivo
[47] = Drug metabolism in human assessed as AUC(0 to 24 hrs) for AC-279 metabolite at 80 mg/kg/day by UHPLC/FT-ICR-MS analysis; type: ADME, organism-based; design: time < 24 hr, dose 80 mg/kg/day; details: in vivo
[48] = Metabolic stability in human liver microsomes assessed as compound remaining at 100 uM […] followed by NADPH addition by LC/MS analysis; type: ADME, Microsome; details: read-out: Stability
[49] = AUC(0 to 24 hrs) in mouse at 100 mg/kg by UHPLC/FT-ICR-MS analysis; type: ADME, organism-based; design: time < 24 hr, dose 100 mg/kg; details: in vivo
[50] = Drug distribution in Sprague-Dawley rat brain at 6 micromol/kg administered via gavage measured after 6 hrs by LC-MS/MS analysis; type: ADME, tissue-based; details: in vivo, po, dose 6 µmol/kg
[51] = Drug metabolism in rat assessed as AUC(0 to 24 hrs) for AC- 527 metabolite at 100 mg/kg by UHPLC/FT-ICR-MS analysis; type: ADME, organism-based; design: time < 24 hr, dose 100 mg/kg; details: in vivo

Cytochrome P450 2C19, sequence (P33261 whole entry): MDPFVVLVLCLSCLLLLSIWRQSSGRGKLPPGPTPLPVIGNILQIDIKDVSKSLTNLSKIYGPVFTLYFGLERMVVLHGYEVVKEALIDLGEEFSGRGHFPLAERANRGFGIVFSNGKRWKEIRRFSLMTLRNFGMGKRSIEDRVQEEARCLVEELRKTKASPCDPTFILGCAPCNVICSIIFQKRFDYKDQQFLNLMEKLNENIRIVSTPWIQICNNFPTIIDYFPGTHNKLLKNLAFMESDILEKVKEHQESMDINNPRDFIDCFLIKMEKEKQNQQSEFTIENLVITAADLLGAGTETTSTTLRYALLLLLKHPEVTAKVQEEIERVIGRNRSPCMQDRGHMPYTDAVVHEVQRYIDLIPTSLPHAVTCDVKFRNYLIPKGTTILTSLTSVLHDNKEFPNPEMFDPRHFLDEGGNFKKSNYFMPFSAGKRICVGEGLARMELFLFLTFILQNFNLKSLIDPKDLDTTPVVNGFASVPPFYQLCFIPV
Cytochrome P450 2C9, sequence (P11712 whole entry): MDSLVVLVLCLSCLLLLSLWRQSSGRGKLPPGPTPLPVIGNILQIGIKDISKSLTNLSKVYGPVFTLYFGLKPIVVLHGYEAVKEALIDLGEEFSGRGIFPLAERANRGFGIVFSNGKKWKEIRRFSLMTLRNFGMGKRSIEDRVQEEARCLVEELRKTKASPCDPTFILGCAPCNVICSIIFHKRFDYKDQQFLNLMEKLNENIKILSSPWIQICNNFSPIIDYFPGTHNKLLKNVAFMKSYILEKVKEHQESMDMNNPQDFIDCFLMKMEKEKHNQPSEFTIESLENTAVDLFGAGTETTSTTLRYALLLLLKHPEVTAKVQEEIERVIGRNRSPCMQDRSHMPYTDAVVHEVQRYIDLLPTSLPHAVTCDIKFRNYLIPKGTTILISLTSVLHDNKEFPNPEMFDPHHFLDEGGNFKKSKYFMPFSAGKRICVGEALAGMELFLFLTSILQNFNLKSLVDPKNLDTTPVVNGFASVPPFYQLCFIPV
Cytochrome P450 2D6, sequence (P10635 whole entry): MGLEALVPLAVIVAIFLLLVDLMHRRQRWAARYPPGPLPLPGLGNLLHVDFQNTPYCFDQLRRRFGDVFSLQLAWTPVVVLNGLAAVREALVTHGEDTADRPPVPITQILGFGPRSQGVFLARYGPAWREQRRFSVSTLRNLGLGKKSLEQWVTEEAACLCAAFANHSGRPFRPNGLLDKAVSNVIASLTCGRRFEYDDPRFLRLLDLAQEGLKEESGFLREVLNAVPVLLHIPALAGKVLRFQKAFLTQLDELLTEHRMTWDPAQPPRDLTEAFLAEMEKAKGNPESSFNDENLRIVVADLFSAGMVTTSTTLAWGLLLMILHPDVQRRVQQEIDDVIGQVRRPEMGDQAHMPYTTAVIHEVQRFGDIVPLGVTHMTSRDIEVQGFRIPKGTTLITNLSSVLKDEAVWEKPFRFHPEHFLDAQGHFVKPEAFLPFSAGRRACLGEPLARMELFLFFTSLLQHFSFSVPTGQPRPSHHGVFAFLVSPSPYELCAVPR

CC(C)COc1ccc(CNC(=O)N(Cc2ccc(F)cc2)C2CCN(C)CC2)cc1.O=C(O)C(O)C(O)C(=O)O
AUC(0-t) at 24 h [1]: 0.0786 µM·h | Tmax [2]: 0.5 h | Cmax [3]: 43.3 nM | Vd/F [4]: 0.155 L/kg | half-life [5]: 1.28 h | MRT last at 24 h [6]: 1.82 h

CN1CCC(N(Cc2ccc(F)cn2)C(=O)NCc2ccc(OCC(F)(F)F)cc2)CC1.O=C(O)C(O)C(O)C(=O)O
MRT last at 24 h [7]: 6.03 h | half-life [8]: 4.72 h | Cmax [9]: 174 nM | MRT last at 24 h [10]: 6.3 h | AUC(0-t) at 24 h [11]: 0.683 µM·h | half-life [12]: 4.44 h | AUC(0-t) at 24 h [13]: 1.22 µM·h | Tmax [14]: 0.81 h | Cmax [15]: 87.7 nM | Tmax [16]: 0.9 h

CC(C)COc1ccc(CNC(=O)N(Cc2ccc(F)cc2)C2CCN(C)CC2)cc1 [PIMAVANSERIN]
fraction unbound at 10 µM [17]: 0.037 | AUC [18]: 236 ng·h/mL | remaining at 100 µM [19]: 68.5% | AUC [20]: 8210 ng·h/mL | Ct [21]: 171 nmol/kg | IC50 [22]: 52 µM | CLint scaled at 100 µM [23]: 11 mL/min/kg | Ct [24]: 136 nmol/kg | CLint scaled at 100 µM [25]: 23.2 mL/min/kg | logD [26]: 2.78 | AUC at 24 h [27]: 836 ng·h/mL | AUC [28]: 2411 ng·h/mL | solubility [29]: 21 µg/mL (≈ 49.1 µM) | pKa [30]: 8.44 | half-life at 100 µM [31]: 1.96 h | AUC [32]: 112 ng·h/mL | IC50 [33]: > 100 µM | AUC [34]: 18577 ng·h/mL | fraction unbound at 10 µM [35]: 0.045 | IC50 [36]: 49.8 µM | AUC(0-t) at 24 h [37]: 3250 ng·h/mL | AUC [38]: 4320 ng·h/mL | AUC [39]: 4800 ng·h/mL | fraction unbound at 10 µM [40]: 0.053 | remaining at 100 µM [41]: 29.7% | AUC(0-t) at 24 h [42]: 7730 ng·h/mL | half-life at 100 µM [43]: 1.78 h | IC50 [44]: > 100 µM | AUC [45]: 1289 ng·h/mL | AUC [46]: 388 ng·h/mL | AUC [47]: 527 ng·h/mL | remaining at 100 µM [48]: 70.7% | AUC(0-t) at 24 h [49]: 4460 ng·h/mL | Ct [50]: 36 nmol/kg | AUC [51]: 1976 ng·h/mL

Reference: ChEMBL document CHEMBL5131502, “Improving the treatment of Parkinson's disease: Structure-based development of novel 5-HT2A receptor antagonists/inverse agonists” (Eur J Med Chem, 2022)
